Measurements published in patent US20240108738A1, “BICYCLIC PEPTIDE LIGANDS SPECIFIC FOR NK CELLS” (Bicycle Tx Limited, priority 2021, published 2024).
Numbered stars: 1 amine (or outer) side, 2 acyl side, 3 side chain; on linkers, the order of the positions; unused ones are H or OH. Bridge positions count the residues as written; N and C are the ends. Peptide text beside a SMILES is read from it. TATA = O=C(CC[*:1])N1CN(C(=O)CC[*:2])CN(C(=O)CC[*:3])C1

Each compound was assayed against T1, Fc-tagged human NKp46 (Homo sapiens, UniProt O76036) (assay: NKp46 SPR assay (Method 1 and/or Method 2)). Details: SPR Method 1 and/or Method 2, Table 3B.
T1 construct: purchased ACROBiosystems NC1-H5257
T1 sequence (O76036 22-304): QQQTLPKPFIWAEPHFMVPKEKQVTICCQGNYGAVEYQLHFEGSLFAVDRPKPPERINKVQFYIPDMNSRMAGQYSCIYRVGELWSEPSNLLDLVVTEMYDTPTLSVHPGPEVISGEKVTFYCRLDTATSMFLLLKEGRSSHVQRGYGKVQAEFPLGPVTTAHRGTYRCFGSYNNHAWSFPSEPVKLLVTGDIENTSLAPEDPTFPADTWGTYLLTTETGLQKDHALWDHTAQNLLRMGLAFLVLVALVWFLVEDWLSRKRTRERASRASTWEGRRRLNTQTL
Type: binding
Description: SPR experiments were performed to determine ka (M^−1s^−1), kd (s^−1), KD (nM) values (where measurable) of various bicyclic peptides to immobilised NKp46.
For analysis of peptide binding to NKp46, a Biacore 3000 instrument was used with a Cytiva Streptavidin chip. Capture of the protein (recombinant human NKp46-Fc fusion biotinylated via Avi-tag) was carried out at 25° C. with HBS-N (10 mM HEPES, 0.15 M NaCl, pH 7.4) as the running buffer and biotinylated NKp46 was captured to a level of 400-800 RU using a dilution of protein to 0.2 μM in buffer. Buffer was then changed to PBS/0.05% Tween 20 and a dilution series of the peptides was prepared in this buffer with a final DMSO concentration of 0.5% with a top peptide concentration of 100 nM-5000 nM and 6 further 2 or 3-fold dilutions. The SPR analysis was run at 25° C. and a flow rate of 50 μl/min with 60 seconds association and 200-400 seconds dissociation time. Data were corrected for DMSO excluded volume effects. All data were double-referenced for blank injections and reference surface using standard processing procedures and data processing and kinetic fitting were performed using Scrubber software, version 2.0c (BioLogic Software). Data were fitted using simple 1:1 binding model allowing for mass transport effects where appropriate.
Peptides were tested against Fc-tagged human NKp46 (ACROBiosystems, cat no. NC1-H5257).
For analysis of peptide binding, a Biacore 8k+ instrument was used with a CM5 chip (Cytiva). All experiments were carried out at 25° C. Anti-human IgG (Fc) antibody (Cytiva) was immobilized on all flow cells by standard amine coupling chemistry. The running buffer was HBS-N(Cytiva, 10 mM HEPES, 0.15 M NaCl, pH 7.4) and the flow rate was 10 μL/min. The carboxymethyl dextran surface was activated with a 1:1 ratio of 0.4 M 1-ethyl-3-(3-dimethylaminopropyl) carbodiimide hydrochloride (EDC)/0.1 M N-hydroxy succinimide (NHS) (Cytiva) for 420s. […] Residual activated groups were blocked with a 420 s injection of 1 M ethanolamine (pH 8.5). The final surface density was 3000-5000 RU. Fc-tagged human NKp46 was diluted to 0.1 μM in HBS-N and was captured on flow cell 2 only of the sensor chip at a flow rate of 10 μL/min to 500-1000 RU. The buffer was then changed to PBS-P+(Cytiva) supplemented with 2% DMSO. […] The flow rate was 50 μL/min with 60 s association and 400 s dissociation. Data were corrected for DMSO volume exclusion effects. All data were double-referenced against blank injections and reference surface response using standard processing procedures. Data processing and kinetic fitting was performed using Biacore Insight Evaluation Software with Extended Screening and Characterization Extension (Cytiva). Data were fitted using steady state affinity 1:1 binding model to determine KD. Data were fitted using kinetic 1:1 binding model to determine kinetic constants where appropriate.
Work on `CC(C)C[C@@H]1NC(=O)[C@@H]2CSCCC(=O)N3CN(CN(C3)C(=O)CCSC[C@@H](C(=O)N[C@@H](C)C(N)=O)NC(=O)[C@H](C(C)C)NC(=O)[C@H](CCCCN)NC(=O)CNC(=O)[C@H]([C@@H](C)O)NC(=O)[C@H](Cc3c[nH]cn3)NC1=O)C(=O)CCSC[C@H](NC(=O)[C@H](C)N)C(=O)N[C@@H](CC(N)=O)C(=O)N[C@@H](CC(C)C)C(=O)N[C@@H](CCC(N)=O)C(=O)N[C@@H](CCC(N)=O)C(=O)N[C@@H](C)C(=O)N2` [BCY14454, A-(SEQ ID NO: 63)-A] (H-ACNLQQACLHTGKVCA-NH2; linker 2-8-15 via TATA; N-terminus assumed) yielded a Kd of 2.76 µM.
`CSCC[C@@H]1NC(=O)[C@H](CCCCN)NC(=O)[C@@H]2CCCN2C(=O)[C@H](Cc2c[nH]cn2)NC(=O)[C@H]([C@@H](C)O)NC(=O)[C@H](CC(N)=O)NC(=O)[C@@H]2CCCN2C(=O)[C@@H]2CSCCC(=O)N3CN(CN(C3)C(=O)CCSC[C@@H](C(=O)N[C@@H](C)C(N)=O)NC1=O)C(=O)CCSC[C@H](NC(=O)[C@H](C)N)C(=O)N[C@@H](CC(C)C)C(=O)N[C@@H](CC(C)C)C(=O)N[C@@H](Cc1c[nH]cn1)C(=O)N[C@@H](CC(=O)O)C(=O)N[C@@H](Cc1c[nH]cn1)C(=O)N2` [BCY14457, A-(SEQ ID NO: 103)-A] (H-ACLLHDHCPNTHPKMCA-NH2; linker 2-8-16 via TATA) gave a Kd of 2.27 µM.
Work on `CC[C@H](C)[C@@H]1NC(=O)[C@@H]2CSCCC(=O)N3CN(CN(C3)C(=O)CCSC[C@@H](C(=O)N[C@@H](C)C(N)=O)NC(=O)[C@H](C(C)C)NC(=O)CNC(=O)[C@H](Cc3c[nH]c4ccccc34)NC1=O)C(=O)CCSC[C@H](NC(=O)[C@H](C)N)C(=O)N[C@@H](CC(=O)O)C(=O)N[C@@H](CC(C)C)C(=O)N[C@@H]([C@@H](C)O)C(=O)N[C@@H]([C@@H](C)O)C(=O)N[C@@H](Cc1c[nH]cn1)C(=O)N[C@@H](CC(N)=O)C(=O)N2` [BCY14458, A-(SEQ ID NO: 104)-A] (H-ACDLTTHNCIWGVCA-NH2; linker 2-9-14 via TATA; C-terminus assumed) yielded a Kd of 1.26 µM.
For `CSCC[C@@H]1NC(=O)[C@@H]2CSCCC(=O)N3CN(CN(C3)C(=O)CCSC[C@@H](C(=O)N[C@@H](C)C(N)=O)NC(=O)[C@H](C(C)C)NC(=O)[C@H](CCCCN)NC(=O)CNC(=O)[C@H]([C@@H](C)O)NC(=O)[C@H](CCC(N)=O)NC1=O)C(=O)CCSC[C@H](NC(=O)[C@H](C)N)C(=O)N[C@@H](CC(N)=O)C(=O)N[C@@H](CC(C)C)C(=O)N[C@@H](CCC(N)=O)C(=O)N[C@@H](C)C(=O)N1CCC[C@H]1C(=O)N2` [BCY15098, A-(SEQ ID NO: 3)-A], the Kd was 1.07 µM.
Compound `CSCC[C@@H]1NC(=O)[C@@H]2CSCCC(=O)N3CN(CN(C3)C(=O)CCSC[C@@H](C(=O)N[C@@H](C)C(N)=O)NC(=O)[C@@H]3CCCN3C(=O)[C@H](Cc3ccccc3)NC(=O)[C@H](CCCCN)NC1=O)C(=O)CCSC[C@H](NC(=O)[C@H](C)N)C(=O)N[C@@H](CC(N)=O)C(=O)N[C@@H](CC(C)C)C(=O)N[C@@H](CCC(N)=O)C(=O)N[C@@H](CC(N)=O)C(=O)N1CCC[C@H]1C(=O)N2` [BCY15102, A-(SEQ ID NO: 2)-A] (H-ACNLQNPCMKFPCA-NH2; linker 2-8-13 via TATA; C-terminus assumed) has a Kd of 1.09 ± 0.099 µM.
For `CC(C)C[C@@H]1NC(=O)[C@@H](NC(=O)[C@H](C)N)CSCCC(=O)N2CN3CN(C2)C(=O)CCSC[C@H](NC(=O)[C@H](Cc2c[nH]cn2)NC(=O)[C@H](CC(=O)O)NC(=O)[C@H](Cc2c[nH]cn2)NC(=O)[C@H](CC(C)C)NC1=O)C(=O)N1CCC[C@H]1C(=O)N[C@@H](CC(N)=O)C(=O)N[C@@H]([C@@H](C)O)C(=O)N[C@@H](Cc1c[nH]cn1)C(=O)N1CCC[C@H]1C(=O)N[C@@H](CCCCN)C(=O)N[C@@H](CC(C)C)C(=O)N[C@H](C(=O)N[C@@H](C)C(N)=O)CSCCC3=O` [BCY15103, A-(SEQ ID NO: 5)-A] (H-ACLLHDHCPNTHPKLCA-NH2; linker 2-8-16 via TATA), the Kd was 1.66 ± 0.544 µM.
